Source: patent US9000025B2, “Autotaxin inhibitors and uses thereof” (Amira Pharmaceuticals, Inc., priority 2010, dated 2015)

The compounds below were run against T1, autotaxin (ATX) (Homo sapiens, UniProt Q13822) (assay: Native Autotaxin Choline Release Assay). Details: autotaxin in conditioned medium from human melanoma cell line; choline released from LPC; read-out: MDA-MB-435S Assay IC50.
T1 construct: conditioned medium from the human melanoma cell line, MDA-MB-4355, which endogenously expresses autotaxin; host or cells: MDA-MB-435S human melanoma cells; serum-free conditioned medium, concentrated 20-fold
Format: biochemical
Method: ATX activity is determined by measuring the amount of choline realeased from the substrate, lyosphophatidylcholine (LPC). […] After reaching confluency, the cells are washed twice with phosphate-buffered saline (PBS) then cultured for 48 hours in phenol-red free, serum-free DMEM containing sodium pyruvate. […] 100 μl of a color mix which contains 4.5 mM 4-aminoantipyrine, 2.7 mM N-ethyl-N-(2-hydroxy-3-sulfopropyl)-m-toluidine, 21 units/ml horseradish peroxidase and 3 units/ml choline oxidase in 50 mM Tris, pH 8, 4.5 mM MgCl2 is added and the incubation continued at 37° C. for 10 minutes before reading the absorbance at 555 nm. The concentration of released choline in the sample is determined from a choline standard curve and is equal to the concentration of LPA produced.

| IC50 | SMILES |
| --- | --- |
| < 300 nM | CCn1cc(-n2c(C)c(Sc3cccc(C(=O)O)c3)c3ccc(Cl)c(Cl)c32)cn1 [Compound 3-52, 3-[6,7-Dichloro-1-(1-ethyl-1H-pyrazol-4-yl)-2-methyl-1H-indol-3-ylsulfanyl]-benzoic acid] |
| < 300 nM | Cc1c(Sc2cccc(C(=O)O)c2)c2ccc(Cl)cc2n1-c1cnn(C(C)C)c1 [Compound 1-44, 3-[6-Chloro-1-(1-isopropyl-1H-pyrazol-4-yl)-2-methyl-1H-indol-3-ylsulfanyl]-benzoic acid] |
| 300 to 1000 nM | Cc1c(Sc2cccc(C(=O)O)c2)c2ccc(Cl)cc2n1-c1ccccn1 [Compound 1-31, 3-(6-Chloro-2-methyl-1-pyridin-2-yl-1H-indol-3-ylsulfanyl)-benzoic acid] |
| < 300 nM | CCn1cc(-n2c(C)c(Sc3cccc(C(=O)O)c3F)c3ccc(Cl)c(F)c32)cn1 [Compound 4-3, 3-[6-Chloro-1-(1-ethyl-1H-pyrazol-4-yl)-7-fluoro-2-methyl-1H-indol-3-ylsulfanyl]-2-fluoro-benzoic acid] |
| < 300 nM | CCn1cc(-n2c(C)c(Sc3cccc(C(=O)O)c3)c3ccc(Cl)c(C)c32)cn1 [Compound 3-21, 3-[6-Chloro-1-(1-ethyl-1H-pyrazol-4-yl)-2,7-dimethyl-1H-indol-3-ylsulfanyl]-benzoic acid] |
| > 1000 nM | Cc1c(Sc2cccc(CCC(=O)O)c2)c2ccc(Cl)cc2n1Cc1ccccc1 [Compound 1-17, 3-[3-(1-Benzyl-6-chloro-2-methyl-1H-indol-3-ylsulfanyl)-phenyl]-propionic acid] |
| > 1000 nM | Cc1c(Sc2cccc(C(=O)NCCN(C)C)c2)c2ccc(Br)cc2n1Cc1ccccc1 [Compound 2-11, 3-(1-Benzyl-6-bromo-2-methyl-1H-indol-3-ylsulfanyl)-N-(2-dimethylamino-ethyl)-benzamide] |
| < 300 nM | Cc1cc(-n2c(C)c(Sc3cccc(C(=O)O)c3)c3ccc(Cl)c(F)c32)cs1 [Compound 3-61, 3-[6-Chloro-7-fluoro-2-methyl-1-(5-methyl-thiophen-3-yl)-1H-indol-3-ylsulfanyl]-benzoic acid] |
| > 1000 nM | COc1ccc(C(=O)O)cc1Sc1c(C)n(-c2cnn(C)c2)c2cc(Cl)ccc12 [Compound 1-41, 3-[6-Chloro-2-methyl-1-(1-methyl-1H-pyrazol-4-yl)-1H-indol-3-ylsulfanyl]-4-methoxy-benzoic acid] |
| > 1000 nM | Cc1[nH]c2cc(Cl)ccc2c1Sc1ccc(CC(=O)O)cc1 [Compound 3-2, [4-(6-Chloro-2-methyl-1H-indol-3-ylsulfanyl)-phenyl]-acetic acid] |
| > 1000 nM | Cc1c(Sc2cccc(CC(=O)O)c2)c2ccc(Cl)cc2n1C [Compound 1-5, [3-(6-Chloro-1,2-dimethyl-1H-indol-3-ylsulfanyl)-phenyl]-acetic acid] |
| > 1000 nM | Cc1c(Sc2cccc(C(=O)NCC[N+](C)(C)C)c2)c2ccc(Br)cc2n1Cc1ccccc1 [Compound 2-10, {2-[3-(1-Benzyl-6-bromo-2-methyl-1H-indol-3-ylsulfanyl)-benzoylamino]-ethyl}-trimethyl-ammonium] |
| < 300 nM | COc1cncc(-n2c(C)c(Sc3cccc(C(=O)O)c3)c3ccc(Cl)cc32)c1 [Compound 1-37, 3-[6-Chloro-1-(5-methoxy-pyridin-3-yl)-2-methyl-1H-indol-3-ylsulfanyl]-benzoic acid] |
| > 1000 nM | Cc1c(Sc2cccc(C(=O)O)c2)c2ccc(Cl)cc2n1C [Compound 1-6, 3-(6-Chloro-1,2-dimethyl-1H-indol-3-ylsulfanyl)-benzoic acid] |
| < 300 nM | CCC(C(=O)O)c1cccc(Sc2c(C)n(-c3cccnc3)c3cc(Cl)ccc23)c1 (stereo not shown) [Compound 1-49, 2-[3-(6-Chloro-2-methyl-1-pyridin-3-yl-1H-indol-3-ylsulfanyl)-phenyl]-butyric acid] |
| < 300 nM | Cc1ccc(-n2c(C)c(Sc3cccc(C(=O)O)c3)c3ccc(Cl)cc32)cn1 [Compound 1-34, 3-[6-Chloro-2-methyl-1-(6-methyl-pyridin-3-yl)-1H-indol-3-ylsulfanyl]-benzoic acid] |
| < 300 nM | Cc1c(Sc2cccc(C(=O)O)c2)c2ccc(Cl)c(F)c2n1-c1cnn(C2CCC2)c1 [Compound 3-36, 3-[6-Chloro-1-(1-cyclobutyl-1H-pyrazol-4-yl)-7-fluoro-2-methyl-1H-indol-3-ylsulfanyl]-benzoic acid] |
| < 300 nM | CCc1cncc(-n2c(C)c(Sc3cccc(C(=O)O)c3)c3ccc(Cl)c(F)c32)c1 [Compound 3-25, 3-[6-Chloro-1-(5-ethyl-pyridin-3-yl)-7-fluoro-2-methyl-1H-indol-3-ylsulfanyl]-benzoic acid] |

Further lines, the compound ahead of its results:

| SMILES | IC50 |
| --- | --- |
| CCn1cc(-n2c(C)c(Sc3cccc(C(=O)O)c3C)c3ccc(Cl)cc32)cn1 [Compound 1-64, 3-[6-Chloro-2-methyl-1-(1-ethyl-1H-pyrazol-4-yl)-1H-indol-3-ylsulfanyl]-2-methyl-benzoic acid] | < 300 nM |
| CCCn1cc(-n2c(C)c(Sc3cccc(CC(=O)NS(C)(=O)=O)c3)c3ccc(Cl)cc32)cn1 [Compound 3-53, N-(2-{3-[6-Chloro-2-methyl-1-(1-propyl-1H-pyrazol-4-yl)-1H-indol-3-ylsulfanyl]-phenyl}-acetyl)-methanesulfonamide] | < 300 nM |
| Cc1c(Sc2cc(C(=O)O)cc(C(F)(F)F)c2)c2ccc(Cl)cc2n1-c1cnn(C)c1 [Compound 1-53, 3-[6-Chloro-2-methyl-1-(1-methyl-1H-pyrazol-4-yl)-1H-indol-3-ylsulfanyl]-5-trifluoromethyl-benzoic acid] | > 1000 nM |
| CCCn1cc(-n2c(C)c(Sc3cccc(C(=O)NS(=O)(=O)c4ccccc4)c3F)c3ccc(Cl)c(F)c32)cn1 [Compound 4-8, N-{3-[6-Chloro-1-(1-propyl-1H-pyrazol-4-yl)-7-fluoro-2-methyl-1H-indol-3-ylsulfanyl]-2-fluoro-benzoyl}-benzenesulfonamide] | < 300 nM |
| CCn1cc(-n2c(C)c(Sc3cccc(C(=O)O)c3)c3ccc(Cl)cc32)cn1 [Compound 1-43, 3-[6-Chloro-1-(1-ethyl-1H-pyrazol-4-yl)-2-methyl-1H-indol-3-ylsulfanyl]-benzoic acid] | < 300 nM |
| CCc1c(Sc2cccc(C(=O)O)c2)c2ccc(Cl)cc2n1Cc1ccccc1 [Compound 3-15, 3-(1-Benzyl-6-chloro-2-ethyl-1H-indol-3-ylsulfanyl)-benzoic acid] | > 1000 nM |
| CCCn1cc(-n2c(C)c(Sc3cccc(CC(=O)NS(=O)(=O)c4ccccc4)c3)c3ccc(Cl)cc32)cn1 [Compound 3-55, N-(2-{3-[6-Chloro-2-methyl-1-(1-propyl-1H-pyrazol-4-yl)-1H-indol-3-ylsulfanyl]-phenyl}-acetyl)-benzenesulfonamide] | < 300 nM |
| Cc1c(Sc2cccc(-c3nn[nH]n3)c2)c2ccc(Cl)cc2n1Cc1ccccc1 [Compound 2-9, 1-Benzyl-6-chloro-2-methyl-3-[3-(2H-tetrazol-5-yl)-phenylsulfanyl]-1H-indole] | > 1000 nM |
| Cc1c(Sc2ccc(CC(=O)O)cc2)c2ccc(Cl)cc2n1C [Compound 3-11, [4-(6-Chloro-1,2-dimethyl-1H-indol-3-ylsulfanyl)-phenyl]-acetic acid] | > 1000 nM |
| Cc1c(Sc2cccc(C(=O)O)c2)c2ccc(Cl)c(F)c2n1-c1cnn(CCO)c1 [Compound 3-50, 3-{6-Chloro-7-fluoro-1-[1-(2-hydroxy-ethyl)-1H-pyrazol-4-yl]-2-methyl-1H-indol-3-ylsulfanyl}-benzoic acid] | < 300 nM |
| Cc1[nH]c2cc(Cl)ccc2c1Sc1cccc(B(O)O)c1 [Compound 2-1, 3-(6-Chloro-2-methyl-1H-indol-3-ylsulfanyl)-phenylboronic acid] | > 1000 nM |
| COCCn1c(C)c(Sc2cccc(CC(=O)O)c2)c2ccc(Cl)cc21 [Compound 1-8, {3-[6-Chloro-1-(2-methoxy-ethyl)-2-methyl-1H-indol-3-ylsulfanyl]-phenyl}-acetic acid] | 300 to 1000 nM |
| Cc1c(Sc2cccc(C(=O)O)c2)c2ccc(Cl)cc2n1Cc1ccc(C(F)(F)F)nc1 [Compound 1-22, 3-[6-Chloro-2-methyl-1-(6-trifluoromethyl-pyridin-3-ylmethyl)-1H-indol-3-ylsulfanyl]-benzoic acid] | > 1000 nM |
| COc1ccc(-n2c(C)c(Sc3cccc(C(=O)O)c3)c3ccc(Cl)cc32)cn1 [Compound 1-33, 3-[6-Chloro-1-(6-methoxy-pyridin-3-yl)-2-methyl-1H-indol-3-ylsulfanyl]-benzoic acid] | < 300 nM |
| Cc1c(Sc2cccc(C(=O)O)c2)c2ccc(Cl)cc2n1-c1cnn(-c2ccc(F)cc2)c1 [Compound 1-71, 3-{6-Chloro-1-[1-(4-fluoro-phenyl)-1H-pyrazol-4-yl]-2-methyl-1H-indol-3-ylsulfanyl}-benzoic acid] | < 300 nM |
| COc1cccc2[nH]c(C)c(Sc3cccc(CC(=O)O)c3)c12 [Compound 3-6, [3-(4-Methoxy-2-methyl-1H-indol-3-ylsulfanyl)-phenyl]-acetic acid] | > 1000 nM |
| Cc1ccc(C(=O)O)cc1Sc1c(C)n(-c2cccnc2)c2cc(Cl)ccc12 [Compound 1-54, 3-(6-Chloro-2-methyl-1-pyridin-3-yl-1H-indol-3-ylsulfanyl)-4-methyl-benzoic acid] | > 1000 nM |
| CCn1cc(-n2c(C)c(Sc3cccc(C(=O)O)c3)c3ccc(S(C)(=O)=O)cc32)cn1 [Compound 1-75, 3-[1-(1-Ethyl-1H-pyrazol-4-yl)-6-methanesulfonyl-2-methyl-1H-indol-3-ylsulfanyl]-benzoic acid] | > 1000 nM |
| Cc1[nH]c2cccc(Cl)c2c1Sc1cccc(B(O)O)c1 [Compound 3-9, 3-(4-Chloro-2-methyl-1H-indol-3-ylsulfanyl)-phenylboronic acid] | > 1000 nM |
